{"source": "patent US7989165B2", "about": "“Tape stripping methods for analysis of skin disease and pathological skin state” (DermTech International, priority 2004, dated 2011)", "type_in_all_cases": "in vivo, human", "key": {"GAPDH mRNA": {"system": "GAPDH mRNA", "assay": "RT-PCR of GAPDH mRNA in tape-stripped psoriatic lesions during Enbrel treatment", "conditions": "week 8 of treatment", "experimental": "(§1) Patients were treated with Enbrel™ (Etanercept) over a period of months. Both before treatment commenced (week 0) and at various time points during treatment, a lesion was tape stripped using the synthetic rubber-based adhesive MA70 (Adhesives Research) on a polyurethane film. Adhesive strips were manufactured as circles of 17 mm diameter. Skin sites were sequentially stripped with 4 individual tapes, with each tape applied and removed once. The RNA isolated from the adherent cells on all 4 tapes (from one site) was pooled into one sample. Quantitation was by quantitative RT-PCR using the comparative method with β-actin mRNA as the internal normalizing mRNA standard and calibration achieved by using population average values for ΔCt in uninvolved skin of psoriatic subjects (Table 1)."}, "IFNγ mRNA": {"system": "IFNγ mRNA", "assay": "RT-PCR of IFNγ mRNA in tape-stripped psoriatic lesions during Enbrel treatment", "conditions": "week 8 of treatment", "experimental": "as §1"}, "psoriasis": {"system": "psoriasis", "assay": "Clinical assessment of psoriasis (NPF Score) during Enbrel treatment", "design": "NPF Score: scale not given here", "experimental": "as §1\nRather than calibrate the lesion samples to uninvolved skin of each patient, we have chosen to calibrate to population average values to gain a fold-change relative to non-psoriatic skin. The results of calibrating to each patient's uninvolved skin values were virtually identical (data not shown). […] Thus, positive changes in ΔCt values of these specific mRNAs are negatively correlated with the change from baseline at week 8 in NPF scores. […] In order to assess the significance this observation, the AC, and NPF data in Table 10 was analyzed."}, "IL-23A mRNA": {"system": "IL-23A mRNA", "assay": "RT-PCR of IL-23A mRNA in tape-stripped psoriatic lesions during Enbrel treatment", "conditions": "week 8 of treatment", "experimental": "as §1"}, "IL-12B mRNA": {"system": "IL-12B mRNA", "assay": "RT-PCR of IL-12B mRNA in tape-stripped psoriatic lesions during Enbrel treatment", "conditions": "week 8 of treatment", "experimental": "as §1"}, "TNFα mRNA": {"system": "TNFα mRNA", "assay": "RT-PCR of TNFα mRNA in tape-stripped psoriatic lesions during Enbrel treatment", "conditions": "week 8 of treatment", "experimental": "as §1"}, "[1]": {"conditions": "psoriatic lesion, tape-harvested RNA, relative to β-actin mRNA, one value per patient (P2-P7)"}}, "note": "Values joined by “and” are separate entries in the source; they are usually repeats but may differ in a detail not shown here. Equal entries are not always repeated."}
{"substance": "Enbrel", "values": [{"measurement": "Fold Change (Pop-UIS), GAPDH mRNA", "setting": "GAPDH mRNA; GAPDH/β-actin mRNA ratio in lesion relative to population average of uninvolved skin, per patient", "result": "2.04 fold and 1.69 fold and 1.59 fold and 1.40 fold and 1.77 fold and 2.07 fold"}, {"measurement": "ΔCt (Lesion), GAPDH mRNA", "setting": "GAPDH mRNA; [1]", "result": "1.04 and 1.31 and 1.4 and 1.58 and 1.25 and 1.02"}, {"measurement": "Fold Change (Pop-UIS), INFγ mRNA", "setting": "IFNγ mRNA; INFγ/β-actin mRNA ratio in lesion relative to population average of uninvolved skin, per patient", "result": "0.59 fold and 48.17 fold and 1.49 fold and 8.17 fold and 2.58 fold and 3.25 fold"}, {"measurement": "ΔCt (Lesion), INFγ mRNA", "setting": "IFNγ mRNA; [1]", "result": "11.27 and 4.91 and 9.92 and 7.47 and 9.13 and 8.8"}, {"measurement": "NPF Score", "setting": "psoriasis; National Psoriasis Foundation Score at week 8 of treatment, one value per patient (P2-P7)", "result": "10.7 (5×) and 10.3 (5×) and 16.7 (5×) and 18.7 (5×) and 11.7 (5×) and 12 (5×)"}, {"measurement": "change in NPF score from baseline to week 8", "setting": "psoriasis; psoriatic patients, 8 weeks of treatment, negative indicates improvement in disease", "result": "negative"}, {"measurement": "Fold Change (Pop-UIS), IL-23A mRNA", "setting": "IL-23A mRNA; IL-23A/β-actin mRNA ratio in lesion relative to population average of uninvolved skin, per patient", "result": "5.43 fold and 24.25 fold and 5.70 fold and 9.99 fold and 17.03 fold and 18.64 fold"}, {"measurement": "ΔCt (Lesion), IL-23A mRNA", "setting": "IL-23A mRNA; [1]", "result": "6.59 and 4.85 and 6.52 and 5.71 and 4.94 and 4.81"}, {"measurement": "Fold Change (Pop-UIS), IL-12B mRNA", "setting": "IL-12B mRNA; IL-12B/β-actin mRNA ratio in lesion relative to population average of uninvolved skin, per patient", "result": "0.51 fold and 9.45 fold and 5.31 fold and 11.24 fold and 27.86 fold and 105.42 fold"}, {"measurement": "ΔCt (Lesion), IL-12B mRNA", "setting": "IL-12B mRNA; [1]", "result": "12.48 and 7.35 and 9.09 and >8.01 and 6.7 and 4.78"}, {"measurement": "Fold Change (Pop-UIS), TNFα mRNA", "setting": "TNFα mRNA; TNFα/β-actin mRNA ratio in lesion relative to population average of uninvolved skin, per patient", "result": "10.06 fold and 16.56 fold and 5.66 fold and 9.00 fold and 11.47 fold and 17.27 fold"}, {"measurement": "ΔCt (Lesion), TNFα mRNA", "setting": "TNFα mRNA; [1]", "result": "4.99 and 4.27 and 5.82 and 5.15 and 4.8 and 4.21"}]}
